The supplement of paper PMC10307832

Assays:
Experiment in all cases: relative viability (nuclei count vs DMSO), 5 days (fraction); higher = more cells survive
A-427 = test system: A-427
Method in brief: (§1)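 Nuclei were stained with Hoechst during a one-step fixation (final 0.05% Triton X-100, 1% formaldehyde, 1 ug/ml Hoechst) carried out 5 days after dosing, then counted on 4× images. The cells, lung cancer lines in 1536-well plates, had been dosed by pin tool the day after seeding with one drug alone or a fixed anchor-drug dose plus five library-drug doses (not always all listed) in √10 steps. Relative viability is the nuclei count in treated wells divided by that in vehicle wells, and each value is the median of duplicate plates.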

H3255 = test system: H3255
Method in brief: as §1

HARA = test system: HARA
Method in brief: as §1

HCC-15 = test system: HCC-15
Method in brief: as §1

HCC-366 = test system: HCC-366
Method in brief: as §1

LXF-289 = test system: LXF-289
Method in brief: as §1

NCI-H1437 = test system: NCI-H1437
Method in brief: as §1

NCI-H1755 = test system: NCI-H1755
Method in brief: as §1

NCI-H1793 = test system: NCI-H1793
Method in brief: as §1

NCI-H1915 = test system: NCI-H1915
Method in brief: as §1

NCI-H1975 = test system: NCI-H1975
Method in brief: as §1

NCI-H2009 = test system: NCI-H2009
Method in brief: as §1

NCI-H2023 = test system: NCI-H2023
Method in brief: as §1

NCI-H2405 = test system: NCI-H2405
Method in brief: as §1

NCI-H3122 = test system: NCI-H3122
Method in brief: as §1

NCI-H441 = test system: NCI-H441
Method in brief: as §1

NCI-H460 = test system: NCI-H460
Method in brief: as §1

NCI-H596 = test system: NCI-H596
Method in brief: as §1

NCI-H650 = test system: NCI-H650
Method in brief: as §1

PC-14 = test system: PC-14
Method in brief: as §1

PC-3 [JPC-3] = test system: PC-3 [JPC-3]
Method in brief: as §1

SK-LU-1 = test system: SK-LU-1
Method in brief: as §1

UMC-11 = test system: UMC-11
Method in brief: as §1

O=C(O)CCCCC(CCSCc1ccccc1)SCc1ccccc1 (centres undefined) [CPI-613] + O=C(CCCCCCC(=O)Nc1ccccc1)NO [Vorinostat] (partner 1 µM)
relative viability (A-427; first compound 5 µM): 0.884
relative viability (A-427; first compound 15.81 µM): 0.822
relative viability (A-427; first compound 50 µM): 0.827
relative viability (A-427; first compound 158.11 µM): 0.726
relative viability (A-427; first compound 500 µM): 0.492
relative viability (H3255; first compound 5 µM): 0.765
relative viability (H3255; first compound 15.81 µM): 0.796
relative viability (H3255; first compound 50 µM): 0.639
relative viability (H3255; first compound 158.11 µM): 0.821
relative viability (H3255; first compound 500 µM): 0.716
relative viability (HARA; first compound 5 µM): 0.479
relative viability (HARA; first compound 15.81 µM): 0.529
relative viability (HARA; first compound 50 µM): 0.506
relative viability (HARA; first compound 158.11 µM): 0.0931
relative viability (HARA; first compound 500 µM): 0.024
relative viability (HCC-15; first compound 5 µM): 0.801
relative viability (HCC-15; first compound 15.81 µM): 0.774
relative viability (HCC-15; first compound 50 µM): 0.779
relative viability (HCC-15; first compound 158.11 µM): 0.181
relative viability (HCC-15; first compound 500 µM): 0.0657
relative viability (HCC-366; first compound 5 µM): 0.371
relative viability (HCC-366; first compound 15.81 µM): 0.314
relative viability (HCC-366; first compound 50 µM): 0.291
relative viability (HCC-366; first compound 158.11 µM): 0.0721
relative viability (HCC-366; first compound 500 µM): 0.0058
relative viability (LXF-289; first compound 5 µM): 0.699
relative viability (LXF-289; first compound 15.81 µM): 0.707
relative viability (LXF-289; first compound 50 µM): 0.722
relative viability (LXF-289; first compound 158.11 µM): 0.483
relative viability (LXF-289; first compound 500 µM): 0.567
relative viability (NCI-H1437; first compound 5 µM): 0.803
relative viability (NCI-H1437; first compound 15.81 µM): 0.637
relative viability (NCI-H1437; first compound 50 µM): 0.689
relative viability (NCI-H1437; first compound 158.11 µM): 0.093
relative viability (NCI-H1437; first compound 500 µM): 0.0541
relative viability (NCI-H1755; first compound 5 µM): 0.736
relative viability (NCI-H1755; first compound 15.81 µM): 0.707
relative viability (NCI-H1755; first compound 50 µM): 0.675
relative viability (NCI-H1755; first compound 158.11 µM): 0.577
relative viability (NCI-H1755; first compound 500 µM): 0.608
relative viability (NCI-H1793; first compound 5 µM): 0.781
relative viability (NCI-H1793; first compound 15.81 µM): 0.559
relative viability (NCI-H1793; first compound 50 µM): 0.754
relative viability (NCI-H1793; first compound 158.11 µM): 0.424
relative viability (NCI-H1793; first compound 500 µM): 0.0086
relative viability (NCI-H1915; first compound 5 µM): 0.502
relative viability (NCI-H1915; first compound 15.81 µM): 0.54
relative viability (NCI-H1915; first compound 50 µM): 0.488
relative viability (NCI-H1915; first compound 158.11 µM): 0.467
relative viability (NCI-H1915; first compound 500 µM): 0.0403
relative viability (NCI-H1975; first compound 5 µM): 0.73
relative viability (NCI-H1975; first compound 15.81 µM): 0.735
relative viability (NCI-H1975; first compound 50 µM): 0.692
relative viability (NCI-H1975; first compound 158.11 µM): 0.24
relative viability (NCI-H1975; first compound 500 µM): 0.0367
relative viability (NCI-H2009; first compound 5 µM): 0.726
relative viability (NCI-H2009; first compound 15.81 µM): 0.672
relative viability (NCI-H2009; first compound 50 µM): 0.657
relative viability (NCI-H2009; first compound 158.11 µM): 0.152
relative viability (NCI-H2009; first compound 500 µM): 0.0308
relative viability (NCI-H2023; first compound 5 µM): 0.537
relative viability (NCI-H2023; first compound 15.81 µM): 0.475
relative viability (NCI-H2023; first compound 50 µM): 0.572
relative viability (NCI-H2023; first compound 158.11 µM): 0.0274
relative viability (NCI-H2023; first compound 500 µM): 0.007
relative viability (NCI-H2405; first compound 5 µM): 1.09
relative viability (NCI-H2405; first compound 15.81 µM): 0.79
relative viability (NCI-H2405; first compound 50 µM): 0.787
relative viability (NCI-H2405; first compound 158.11 µM): 0.569
relative viability (NCI-H2405; first compound 500 µM): 0.468
relative viability (NCI-H3122; first compound 5 µM): 0.795
relative viability (NCI-H3122; first compound 15.81 µM): 0.89
relative viability (NCI-H3122; first compound 50 µM): 0.961
relative viability (NCI-H3122; first compound 158.11 µM): 0.728
relative viability (NCI-H3122; first compound 500 µM): 0.805
relative viability (NCI-H441; first compound 5 µM): 0.656
relative viability (NCI-H441; first compound 15.81 µM): 0.789
relative viability (NCI-H441; first compound 50 µM): 0.717
relative viability (NCI-H441; first compound 158.11 µM): 0.437
relative viability (NCI-H441; first compound 500 µM): 0.0026
relative viability (NCI-H460; first compound 5 µM): 0.698
relative viability (NCI-H460; first compound 15.81 µM): 0.553
relative viability (NCI-H460; first compound 50 µM): 0.718
relative viability (NCI-H460; first compound 158.11 µM): 0.0356
relative viability (NCI-H460; first compound 500 µM): 0.008
relative viability (NCI-H596; first compound 5 µM): 0.471
relative viability (NCI-H596; first compound 15.81 µM): 0.621
relative viability (NCI-H596; first compound 50 µM): 0.766
relative viability (NCI-H596; first compound 158.11 µM): 0.3
relative viability (NCI-H596; first compound 500 µM): 0.061
relative viability (NCI-H650; first compound 5 µM): 0.447
relative viability (NCI-H650; first compound 15.81 µM): 0.365
relative viability (NCI-H650; first compound 50 µM): 0.301
relative viability (NCI-H650; first compound 158.11 µM): 0.297
relative viability (NCI-H650; first compound 500 µM): 0.414
relative viability (PC-14; first compound 5 µM): 0.732
relative viability (PC-14; first compound 15.81 µM): 0.612
relative viability (PC-14; first compound 50 µM): 0.611
relative viability (PC-14; first compound 158.11 µM): 0.0514
relative viability (PC-14; first compound 500 µM): 0.0074
relative viability (PC-3 [JPC-3]; first compound 5 µM): 0.83
relative viability (PC-3 [JPC-3]; first compound 50 µM): 0.738
relative viability (PC-3 [JPC-3]; first compound 158.11 µM): 0.623
relative viability (PC-3 [JPC-3]; first compound 500 µM): 0.389
relative viability (SK-LU-1; first compound 5 µM): 0.773
relative viability (SK-LU-1; first compound 15.81 µM): 0.65
relative viability (SK-LU-1; first compound 50 µM): 0.648
relative viability (SK-LU-1; first compound 158.11 µM): 0.206
relative viability (SK-LU-1; first compound 500 µM): 0.11
relative viability (UMC-11; first compound 5 µM): 0.355
relative viability (UMC-11; first compound 15.81 µM): 0.358
relative viability (UMC-11; first compound 50 µM): 0.39
relative viability (UMC-11; first compound 158.11 µM): 0.126
relative viability (UMC-11; first compound 500 µM): 0.1
